According to patent publication US8476302B2, “α-ketoamide derivatives useful endothelial lipase inhibitors” (Janssen Pharmaceutica N.V., priority 2010, dated 2013):

How the values were obtained:
Mouse EL = molecular target: T1, Mouse EL (Mus musculus, UniProt Q9WVG5); test: Endothelial Lipase Assay, cell surface lipase activity (mouse); type: cell-based; details: PLA1 substrate 10 μM, fluorescence reaction rate, several values in a cell are repeat determinations
T1 construct: host or cells: not described for mouse EL
T1 sequence (Q9WVG5 21-500): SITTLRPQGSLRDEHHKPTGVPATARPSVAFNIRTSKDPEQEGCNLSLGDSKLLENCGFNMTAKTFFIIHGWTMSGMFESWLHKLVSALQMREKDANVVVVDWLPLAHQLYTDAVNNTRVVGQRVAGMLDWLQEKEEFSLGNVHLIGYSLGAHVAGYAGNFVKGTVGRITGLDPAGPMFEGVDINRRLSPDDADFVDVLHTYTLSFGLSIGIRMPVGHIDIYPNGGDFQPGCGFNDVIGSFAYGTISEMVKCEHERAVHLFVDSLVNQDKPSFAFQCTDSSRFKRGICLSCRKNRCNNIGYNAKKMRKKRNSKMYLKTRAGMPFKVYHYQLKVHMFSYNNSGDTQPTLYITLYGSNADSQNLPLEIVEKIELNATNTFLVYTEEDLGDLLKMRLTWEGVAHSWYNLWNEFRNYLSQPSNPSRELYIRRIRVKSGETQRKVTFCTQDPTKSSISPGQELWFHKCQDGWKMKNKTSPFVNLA
Method in brief: (§1)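 Cells expressing human or mouse EL, plated 2000 cells/well in serum-free medium for 18-24 h at 37° C, then given PLA1 substrate (10 μM final) in HBSS/25 mM HEPES pH 7.2. Fluorescence (ex 490/em 515 nm) read kinetically for 30 min at 37° C; IC50 from slopes of linear regression over 480-1500 s.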

[1] = molecular target: T2, human endothelial lipase (EL) (Homo sapiens, UniProt Q9Y5X9); test: Endothelial Lipase Assay, cell surface lipase activity (human); type: cell-based; details: cells expressing human EL, PLA1 substrate 10 μM, fluorescence reaction rate; several values in a cell are repeat determinations
T2 construct: host or cells: cells expressing human endothelial lipase
T2 sequence (Q9Y5X9 21-500): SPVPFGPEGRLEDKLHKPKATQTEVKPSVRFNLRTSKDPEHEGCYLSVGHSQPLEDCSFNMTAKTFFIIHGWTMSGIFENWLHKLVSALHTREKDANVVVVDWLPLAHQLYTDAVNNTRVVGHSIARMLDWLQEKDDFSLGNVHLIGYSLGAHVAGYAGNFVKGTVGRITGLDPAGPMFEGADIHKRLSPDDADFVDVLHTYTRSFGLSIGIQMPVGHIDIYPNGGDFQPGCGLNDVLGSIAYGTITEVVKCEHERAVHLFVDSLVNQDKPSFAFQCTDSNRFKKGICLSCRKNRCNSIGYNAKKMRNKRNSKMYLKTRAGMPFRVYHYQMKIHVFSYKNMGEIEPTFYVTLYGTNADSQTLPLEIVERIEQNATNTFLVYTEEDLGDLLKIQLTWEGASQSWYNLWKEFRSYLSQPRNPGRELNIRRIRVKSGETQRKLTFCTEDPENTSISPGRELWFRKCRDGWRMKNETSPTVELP
Method in brief: as §1

IC50 (Mouse EL) [µM] | IC50 [1] [µM] | Compound
27 | 27.9 | O=C(CCCCCNc1ncccn1)C(=O)NCc1nnc(-c2ccc(OCc3ccccc3)cc2)o1 [Compound 176]
7.32 | 11.6 | O=C(CCCCCCc1ccccc1)C(=O)NCc1nnc(-c2ccncc2)o1 [Compound 178]
0.135 | 0.247 | O=C(CCCCCCc1ccccc1)C(=O)NCc1nnc(-c2ccc(Oc3ccccc3)cc2)o1 [Compound 179]
